Reference: patent US5780250A, “Immunoassay standards for polyaromatic hydrocarbon detection” (Strategic Diagnostics, Inc., priority 1996, dated 1998)

Assays:
[1] = tested on: rabbit anti-PAH antisera (anti-analyte antibody on paramagnetic particles); settings: for 50% B/Bo: concentration giving mean absorbance 0.5 times that of the Diluent/Zero Standard, competitive immunoassay, 450 nm; for LDD (least detectable dose): estimated as the dose needed to generate a B/Bo of 90%
[2] = Study of Standard Stability (B/Bo as a function of time of storage); settings: after 200 days of storage at 4° C. (FIG. 2)
Experimental: The vials were then capped with Teflon coated caps and crimped. The vials were then separated into five groups. Each group was then placed at a different temperature (-20° C., 2°-8° C., 20°-25° C., 37° C. and 50° C.) in an upright position. Standards were tested for B/Bo at specified intervals by assaying each standard level in duplicate for each temperature. The results were then graphed as a function of time (x) versus B/Bo(y) by temperature level.

| Structure (SMILES) | 50% B/Bo [1] [ppb] | LDD (least detectable dose) [1] [ppb] | apparent increase in B/Bo on storage [2] [%] |
| --- | --- | --- | --- |
| c1ccc2c(c1)ccc1c3ccccc3ccc21 [chrysene] | 7.8 | 0.40 | – |
| c1ccc2cc3c(ccc4ccccc43)cc2c1 [1,2 benzoanthracene] | 28.4 | 0.77 | – |
| c1cc2ccc3cccc4ccc(c1)c2c34 [pyrene] | 7.7 | 0.20 | – |
| c1ccc2c(c1)-c1cccc3c1c-2cc1ccccc13 [benzo(b)fluoranthene] | 54.2 | 0.91 | – |
| c1ccc2cc3c(cc2c1)-c1cccc2cccc-3c12 [benzo(k)fluoranthene] | 524 | 0.77 | – |
| c1ccc2cc3ccccc3cc2c1 [anthracene] | 11.0 | 0.54 | – |
| c1ccc2c(c1)-c1ccc3ccc4cccc5cc-2c1c3c45 [indeno(1,2,3-c,d)pyrene] | 27.2 | 0.78 | – |
| c1ccc2c(c1)ccc1ccccc12 [phenanthrene, reference compound] | 16.5 | 0.70 | 25 |
| c1ccc2c(c1)-c1cccc3cccc-2c13 [fluoranthene] | 4.7 | 0.32 | – |
| c1ccc2c(c1)Cc1ccccc1-2 [fluorene] | 35.2 | 1.65 | – |
| c1ccc2c(c1)cc1ccc3cccc4ccc2c1c34 [benzo(a)pyrene] | 6.9 | 0.50 | – |
